{
  "source": "patent US20260345620A1",
  "about": "“IMPROVEMENTS IN OR RELATING TO COMPOSITIONS FOR TREATMENT OF LESIONS” (SYDERMA LTD, priority 2023, published 2026)",
  "key": {"actinic keratoses [1]": {"system": "actinic keratoses", "assay": "Split-scalp topical treatment of actinic keratoses in person (Example 2)", "format": "in vivo, human", "protocol": "Quantification is as described for Patient #2 in Table 1;\nIn another experiment a person with an actinic keratoses on their scalp was treated with 5% 5-fluorouracil cream 4× per week for 4 weeks (15 lesions, as marked in FIG. 2, left side of scalp). Another area of actinic keratoses on their scalp (16 lesions, as marked on FIG. 2, right side of scalp) was treated with both 5% 5-fluorouracil cream 4× per week and 0.5% theobromine solution 4× per week for 4 weeks. The 5% 5-FU cream applied was a medically available cream from Mylan, commercially known as Efudix® cream. The theobromine solution was prepared in 25% ethanol and 50% glycerol, adjusted to pH 8 via 100 mM sodium hydrogen carbonate solution. Efudix® was stored as per manufacturer's instructions, at room temperature, and theobromine solution at room temperature in the dark. In application, 50-100 μL (1-2 drops) of theobromine solution was applied first in a thin water-based layer over the whole treated area evenly. 5-FU was applied 10-20 minutes later, via finger application, as per best practice and manufacturer's instructions. One fingertip unit (~0.5 g) was used for an equivalent of half the forehead area.\n(§1) Redness and inflammation were assessed by the responsible physician."}, "basal cell carcinomas [2]": {"system": "basal cell carcinomas", "assay": "Topical treatment of basal cell carcinomas in person (Example 4)", "format": "in vivo, human", "conditions": "one month after completing 1 month once daily treatment; 5% 5-FU with (2 lesions) or without (1 lesion) 0.5% theobromine", "protocol": "In another example, a person with multiple basal cell carcinomas was treated with: 5% 5-fluorouracil (5-FU) cream alone (1 lesion, back, clinical diagnosis) or a combination of 5-FU cream and theobromine solution (2 lesions-biopsy confirmed basal cell carcinoma, right leg and basal cell carcinoma, left forearm, clinical diagnosis). The treatment was continued once daily for 1 month and 0.5% percent theobromine solution. In application, 50-100 μL (1-2 drops) of theobromine solution was applied in a thin water-based layer over the whole treated area evenly (up to 50 cm2 area in total). 5-FU was applied via finger application, as per best practice and manufacturer's instructions. One finger tip unit (0.5 g) was used to cover 1 lesion. 5FU was applied 30 min after theobromine. One month after completing treatment the patient was examined by a dermatologist. The lesions treated with 5FU and theobromine resolved and the lesion treated with 5FU persisted."}, "actinic keratoses [3]": {"system": "actinic keratoses", "assay": "Split-area topical treatment of actinic keratoses on scalp of person (Example 1)", "format": "in vivo, human", "protocol": "In one experiment a person with an actinic keratoses region on their scalp was treated with 5% 5-fluorouracil cream once daily for 30 days (as marked in FIG. 1, posterior region). Another area of actinic keratoses on their scalp (As marked on FIG. 1, anterior region) was treated with both 5% 5-fluorouracil cream once daily and 0.5% theobromine solution once daily for 30 days. The 5% 5-FU cream applied was a medically available cream from Mylan, commercially known as Efudix® cream. The theobromine solution was prepared in 25% ethanol and 50% glycerol, adjusted to pH 8 via 100 mM sodium hydrogen carbonate solution. Efudix® was stored as per manufacturer's instructions, at room temperature, and theobromine solution at room temperature in the dark. In application, 50-100 μL (1-2 drops) of theobromine solution was applied first in a thin water-based layer over the whole treated area evenly. 5-FU was applied 10-20 minutes later, via finger application, as per best practice and manufacturer's instructions. One fingertip unit (~0.5 g) was used for an equivalent of half the forehead area.\nas §1"}, "thymidylate synthase": {"system": "thymidylate synthase", "conditions": "role: inhibitor; cited from earlier work"}, "basal cell carcinomas [4]": {"system": "basal cell carcinomas", "conditions": "topical; cited from earlier work"}, "actinic keratoses [5]": {"system": "actinic keratoses", "conditions": "topical; cited from earlier work"}, "[6]": {"conditions": "topical; percent of patients; cited from earlier work"}, "AK lesion": {"system": "AK lesion", "assay": "Split-scalp treatment of actinic keratoses with 5FU plus methylxanthine versus 5FU alone (Example 3)", "format": "in vivo, human", "conditions": "for AK lesion clearance / efficacy versus 5FU alone control: 0.5% w/v methylxanthine in combination with Efudix 5% 5FU", "protocol": "P values below 0.05, denoting significance, are as marked.\nResults are shown per individual patient.\nAll patients were treated solely on the scalp and were only treated on half of the scalp with the test compound and 5FU, while the other half was used as control, treated with 5FU alone. Separation between combination and 5FU only control was mostly done medially, with one patient having and anterior/posterior treatment setup. As in Example 2, the patients self-administered the test compound on the test region 10-20 minutes before applying the Efudix® cream containing 5% w/v 5FU. In application, 50-100 μL (1-2 drops) of the test compound solution was applied first in a thin water-based layer over the whole treated area evenly. 5-FU was applied 10-20 minutes later, via finger application, as per best practice and manufacturer's instructions. Patients applied the regimen at regular intervals, once daily. One fingertip unit (~0.5 g) was used for an equivalent of half the scalp area."}, "PARP": {"system": "PARP", "conditions": "role: inhibitor; physiologically and clinically achievable conditions; cited from earlier work"}, "basal cell carcinoma [7]": {"system": "basal cell carcinoma", "assay": "Topical theobromine alone on basal cell carcinoma in person (Example 7, comparative)", "format": "in vivo, human", "conditions": "0.5% theobromine solution once daily for 2 months", "protocol": "In another example a person with a clinical diagnosis of basal cell carcinoma was treated with 0.5% percent theobromine solution. In application, 50-100 μL (1-2 drops) of theobromine solution was applied in a thin water-based layer over the whole treated area evenly (up to 50 cm 2 area in total). Theobromine was applied once daily for 2 months. At the end of the treatment, they were examined by a dermatologist."}, "actinic keratoses [8]": {"system": "actinic keratoses", "assay": "Topical theobromine alone on actinic keratoses on nose of person (Example 10, comparative)", "format": "in vivo, human", "protocol": "In another experiment a person with an area of actinic keratoses on their nose was treated with 0.5% theobromine solution once daily for 4 weeks. The theobromine solution was prepared in 25% ethanol and 50% glycerol, adjusted to pH 8 via 100 mM sodium hydrogen carbonate solution. Theobromine solution was stored at room temperature in the dark. In application, 50-100 μL (1-2 drops) of theobromine solution was applied first in a thin water-based layer over the whole treated area evenly.\n(§2) The patient reported no discomfort with treatment: pain and soreness were reported by the patient to be 0/10 in areas treated with theobromine treatment."}, "ATR": {"system": "ATR", "conditions": "role: inhibitor; physiologically and clinically achievable conditions; cited from earlier work"}, "basal cell carcinoma [9]": {"system": "basal cell carcinoma", "assay": "Topical theobromine alone on basal cell carcinoma in person (Example 8, comparative)", "format": "in vivo, human", "conditions": "0.5% theobromine solution once daily for 1 month", "protocol": "In another example a person with a clinical diagnosis of basal cell carcinoma was treated with 0.5% percent theobromine solution. In application, 50-100 μL (1-2 drops) of theobromine solution was applied in a thin water-based layer over the whole treated area evenly (up to 50 cm 2 area in total). Theobromine was applied once daily for 1 months. The patient was examined by a dermatologist before the treatment and one week after completion of the treatment."}, "actinic keratoses [10]": {"system": "actinic keratoses", "assay": "Topical theobromine alone on actinic keratoses on scalp of person (Example 9, comparative)", "format": "in vivo, human", "protocol": "In another experiment a person with an area of actinic keratoses on their scalp was treated with 0.5% theobromine solution once daily for 4 weeks. The theobromine solution was prepared in 25% ethanol and 50% glycerol, adjusted to pH 8 via 100 mM sodium hydrogen carbonate solution. Theobromine solution was stored at room temperature in the dark. In application, 50-100 μL (1-2 drops) of theobromine solution was applied first in a thin water-based layer over the whole treated area evenly.\nas §2"}, "ATM": {"system": "ATM", "conditions": "role: inhibitor; physiologically and clinically achievable conditions; cited from earlier work"}, "[11]": {"conditions": "cited from earlier work"}, "[12]": {"conditions": "four weeks after completion of treatment"}, "[13]": {"conditions": "0.5% theobromine solution once daily for 4 weeks"}},
  "data": [
    {"smiles": "O=c1[nH]cc(F)c(=O)[nH]1", "note": "[5-FU, 5-fluorouracil]", "values": [
      {"measurement": "redness, soreness and inflammation assessed by physician", "setting": "actinic keratoses [1]; after 4 weeks of treatment", "value": "became inflamed"},
      {"measurement": "pain and soreness reported by the patient", "setting": "actinic keratoses [1]; after 4 weeks, 4x per week, 5% 5-FU cream with or without 0.5% theobromine solution", "value": "2 /10"},
      {"measurement": "discomfort reported by the patient", "setting": "actinic keratoses [1]; during 4 weeks of treatment", "value": "mild discomfort"},
      {"measurement": "clearance of the actinic keratosis lesions", "setting": "actinic keratoses [1]; [12]", "value": "incomplete clearance"},
      {"measurement": "pain reported by the patient", "setting": "actinic keratoses [1]; [12]", "value": "no pain reported by the patient"},
      {"measurement": "residual inflammatory reaction", "setting": "actinic keratoses [1]; [12]", "value": "no visible residual inflammatory reaction"},
      {"measurement": "actinic keratosis lesion count after treatment", "setting": "actinic keratoses [1]; four weeks after completion, starting count 15 (5-FU alone), 16 (combination)", "value": 14, "unit": "lesions"},
      {"measurement": "basal cell carcinoma lesion outcome", "setting": "basal cell carcinomas [2]", "value": "persisted"},
      {"measurement": "inflammation and scaliness of treated area", "setting": "actinic keratoses [3]; a week following cessation of treatment", "value": "significant inflammation and scaly appearance"},
      {"measurement": "pain and soreness reported by the patient", "setting": "actinic keratoses [3]; after 30 days of once daily treatment, 5% 5-FU cream with or without 0.5% theobromine solution", "value": "9 /10"},
      {"measurement": "redness, soreness and inflammation assessed by physician", "setting": "actinic keratoses [3]; after 30 days of treatment", "value": "became inflamed"},
      {"measurement": "discomfort reported by the patient", "setting": "actinic keratoses [3]; during 30 days of treatment", "value": "significant discomfort"},
      {"measurement": "clearance of the actinic keratosis lesion", "setting": "actinic keratoses [3]; [12]", "value": "incomplete clearance"},
      {"measurement": "pain reported by the patient", "setting": "actinic keratoses [3]; [12]", "value": "no pain reported by the patient"},
      {"measurement": "residual inflammatory reaction", "setting": "actinic keratoses [3]; [12]", "value": "no visible residual inflammatory reaction"},
      {"measurement": "reduction in size of actinic keratosis lesion", "setting": "actinic keratoses [3]; four weeks after completion of treatment, ImageJ image analysis", "value": "over 30%"},
      {"measurement": "inhibition of thymidylate synthase", "setting": "thymidylate synthase", "value": "inhibitor of thymidylate synthase"},
      {"measurement": "efficacy for basal cell carcinomas", "setting": "basal cell carcinomas [4]", "value": "60-70%"},
      {"measurement": "efficacy for actinic keratoses", "setting": "actinic keratoses [5]", "value": "50-60%"},
      {"measurement": "patients with painful, severe inflammatory reaction", "setting": "[6]", "value": "20-50%"}
    ]},
    {"smiles": "Cn1c(=O)c2c(ncn2C)n(C)c1=O", "note": "[caffeine]", "values": [
      {"measurement": "AK lesion clearance / efficacy versus 5FU alone control", "setting": "AK lesion", "value": "decreased efficacy"},
      {"measurement": "trend in efficacy per patient", "setting": "AK lesion; 0.5% w/v methylxanthine with 5FU versus 5FU alone baseline", "value": "neither caffeine not theophylline showed any positive trends"}
    ]},
    {"smiles": "CC(C)Cn1cnc2c(N)nc3ccccc3c21", "note": "[imiquimod]", "values": [
      {"measurement": "efficacy for basal cell carcinomas", "setting": "basal cell carcinomas [4]", "value": "70-80%"},
      {"measurement": "efficacy for actinic keratoses", "setting": "actinic keratoses [5]", "value": "50-60%"},
      {"measurement": "patients with painful, severe inflammatory reaction", "setting": "[6]", "value": "20-50%"}
    ]},
    {"smiles": "Cn1cnc2c1c(=O)[nH]c(=O)n2C", "note": "[theobromine]", "values": [
      {"measurement": "inhibitory activity against PARP", "setting": "PARP", "value": "triple inhibitory activity (against ATM, ATR and PARP)"},
      {"measurement": "basal cell carcinoma outcome", "setting": "basal cell carcinoma [7]", "value": "basal cell carcinoma persisted"},
      {"measurement": "change in lesion appearance", "setting": "basal cell carcinoma [7]", "value": "no change in the lesion appearance"},
      {"measurement": "inflammation or pain", "setting": "basal cell carcinoma [7]", "value": "No evidence of inflammation or pain"},
      {"measurement": "pain and soreness reported by the patient", "setting": "actinic keratoses [8]; [13]", "value": "0 /10"},
      {"measurement": "reduction in number of actinic keratoses", "setting": "actinic keratoses [8]; 1 week after completion of 4 weeks treatment", "value": "No reduction in a number of actinic keratoses"},
      {"measurement": "discomfort reported by the patient", "setting": "actinic keratoses [8]; after 4 weeks of treatment", "value": "no discomfort"},
      {"measurement": "redness or inflammation", "setting": "actinic keratoses [8]; after 4 weeks of treatment", "value": "no redness or inflammation detected"},
      {"measurement": "inhibitory activity against ATR", "setting": "ATR", "value": "triple inhibitory activity (against ATM, ATR and PARP)"},
      {"measurement": "change in lesion size or appearance", "setting": "basal cell carcinoma [9]", "value": "no change in the lesion size or appearance"},
      {"measurement": "inflammation or pain", "setting": "basal cell carcinoma [9]", "value": "No evidence of inflammation or pain"},
      {"measurement": "basal cell carcinoma outcome", "setting": "basal cell carcinoma [9]; one week after completion", "value": "basal cell carcinoma persisted"},
      {"measurement": "pain and soreness reported by the patient", "setting": "actinic keratoses [10]; [13]", "value": "0 /10"},
      {"measurement": "reduction in number of actinic keratoses", "setting": "actinic keratoses [10]; [13]", "value": "No reduction in a number of actinic keratoses"},
      {"measurement": "discomfort reported by the patient", "setting": "actinic keratoses [10]; after 4 weeks of treatment", "value": "no discomfort"},
      {"measurement": "redness or inflammation", "setting": "actinic keratoses [10]; after 4 weeks of treatment", "value": "no redness or inflammation detected"},
      {"measurement": "inhibitory activity against ATM", "setting": "ATM", "value": "triple inhibitory activity (against ATM, ATR and PARP)"},
      {"measurement": "AK lesion clearance / efficacy versus 5FU alone control", "setting": "AK lesion", "value": "significantly improved AK lesion clearance"},
      {"measurement": "solubility", "setting": "[11]", "value": "limited solubility"}
    ]}
  ]
}
